Values after ≈ are worked out from the molar mass of the structure shown. Values joined by “and” are separate entries in the source; they are usually repeats but may differ in a detail not shown here. Identical values can stand only once. Like-named read-outs stand apart in the source and are kept apart here.
Columns and labels:
Test in all cases: microbe, parasite or virus in culture
Format in all cases: cell-based
bacterial isolates = conditions: for FIC: peptide + Tobramycin
[1] = tested on: inherently resistant microorganisms; conditions: for MIC: Staphylococcus aureus, MRSA
[2] = tested on: microorganisms with acquired resistance; conditions: for Peptide MIC Alone: Tobramycin section; for FIC: peptide + Tobramycin
[3] = Acinetobacter calcoaceticus, read-out: Piperacillin MIC Alone, A. calcoaceticus 2
[4] = Acinetobacter calcoaceticus, read-out: Piperacillin MIC Alone, A. calcoaceticus 7
[5] = Enterobacter cloacae, read-out: Piperacillin MIC Alone, E. cloacae 9
[6] = Enterobacter cloacae, read-out: Piperacillin MIC Alone, E. cloacae 10
[7] = Enterobacter cloacae, read-out: Piperacillin MIC Alone, E. cloacae 13
[8] = Enterobacter cloacae, read-out: Piperacillin MIC Alone, E. cloacae 16
[9] = Enterobacter cloacae, read-out: Piperacillin MIC Alone, E. cloacae 17
[10] = Escherichia coli, read-out: Piperacillin MIC Alone, E. coli 1
[11] = Haemophilus influenzae, read-out: Piperacillin MIC Alone, H. influenzae 1
[12] = Pseudomonas aeruginosa, read-out: Piperacillin MIC Alone, P. aeruginosa 7
[13] = Pseudomonas aeruginosa, read-out: Piperacillin MIC Alone, P. aeruginosa 15
[14] = Pseudomonas aeruginosa, read-out: Piperacillin MIC Alone, P. aeruginosa 22
[15] = Serratia marcescens, read-out: Piperacillin MIC Alone, S. marcescens SB1
[16] = Stenotrophomonas maltophilia, read-out: Piperacillin MIC Alone, S. maltophilia 2
[17] = Stenotrophomonas maltophilia, read-out: Piperacillin MIC Alone, S. maltophilia 3
[18] = Stenotrophomonas maltophilia, read-out: Piperacillin MIC Alone, S. maltophilia 11
[19] = Stenotrophomonas maltophilia, read-out: Piperacillin MIC Alone, S. maltophilia 14
[20] = Stenotrophomonas maltophilia, read-out: Piperacillin MIC Alone, S. maltophilia 34
[21] = Stenotrophomonas maltophilia, read-out: Piperacillin MIC Alone, S. maltophilia 35
[22] = S. maltophilia (strain code stands in r800, not shown)

## CCN1CCN(C(=O)N[C@@H](C(=O)N[C@@H]2C(=O)N3[C@@H]2SC(C)(C)[C@@H]3C(=O)O)c2ccccc2)C(=O)C1=O [Piperacillin]
Bacterial isolates; A. calcoaceticus 3
  Piperacillin MIC Alone: 128 µg/mL
Bacterial isolates; [3]
  MIC: > 512 µg/mL
Bacterial isolates; Acinetobacter calcoaceticus, read-out: Piperacillin MIC Alone, A. calcoaceticus 3
  MIC: 64 µg/mL (≈ 124 µM)
Bacterial isolates; [4]
  MIC: 32 µg/mL (≈ 61.8 µM)
Bacterial isolates; Acinetobacter calcoaceticus, read-out: Piperacillin MIC Alone, A. calcoaceticus 8
  MIC: 64 µg/mL (≈ 124 µM)
Bacterial isolates; Enterobacter cloacae, read-out: Piperacillin MIC Alone, E. cloacae 6
  MIC: > 128 µg/mL
Bacterial isolates; [5]
  MIC: > 128 µg/mL
Bacterial isolates; [6]
  MIC: > 128 µg/mL
Bacterial isolates; [7]
  MIC: 128 µg/mL (≈ 247 µM)
Bacterial isolates; [8]
  MIC: > 512 µg/mL
Bacterial isolates; [9]
  MIC: > 512 µg/mL
Bacterial isolates; [10]
  MIC: > 128 µg/mL
Bacterial isolates; H. influenzae 1
  Piperacillin MIC Alone: 32 µg/mL
Bacterial isolates; [11]
  MIC: 64 µg/mL (≈ 124 µM)
Bacterial isolates; Haemophilus influenzae, read-out: Piperacillin MIC Alone, H. influenzae 3
  MIC: 0.5 µg/mL (≈ 0.966 µM)
Bacterial isolates; Haemophilus influenzae, read-out: Piperacillin MIC Alone, H. influenzae SB1
  MIC: 0.5 µg/mL (≈ 0.966 µM)
Bacterial isolates; P. aeruginosa 7
  Piperacillin MIC Alone: 128 µg/mL
Bacterial isolates; P. aeruginosa 41
  Piperacillin MIC Alone: 32 µg/mL
Bacterial isolates; [12]
  MIC: > 128 µg/mL
Bacterial isolates; [13]
  MIC: > 128 µg/mL
Bacterial isolates; [14]
  MIC: > 128 µg/mL
Bacterial isolates; Pseudomonas aeruginosa, read-out: Piperacillin MIC Alone, P. aeruginosa 28
  MIC: > 512 µg/mL
Bacterial isolates; Pseudomonas aeruginosa, read-out: Piperacillin MIC Alone, P. aeruginosa 29
  MIC: 512 µg/mL (≈ 989 µM)
Bacterial isolates; Pseudomonas aeruginosa, read-out: Piperacillin MIC Alone, P. aeruginosa 32
  MIC: 64 µg/mL (≈ 124 µM)
Bacterial isolates; Pseudomonas aeruginosa, read-out: Piperacillin MIC Alone, P. aeruginosa 41
  MIC: 64 µg/mL (≈ 124 µM)
Bacterial isolates; S. aureus 19 MRSA
  Piperacillin MIC Alone: >128 µg/mL
Bacterial isolates; S. aureus SB3MRSA
  Piperacillin MIC Alone: 128 µg/mL
Bacterial isolates; [15]
  MIC: 64 µg/mL (≈ 124 µM)
Bacterial isolates; Staphylococcus aureus, MRSA, read-out: Piperacillin MIC Alone, S. aureus 11 MRSA
  MIC: > 128 µg/mL
Bacterial isolates; Staphylococcus aureus, MRSA, read-out: Piperacillin MIC Alone, S. aureus 18 MRSA
  MIC: > 128 µg/mL
Bacterial isolates; Staphylococcus aureus, MRSA, read-out: Piperacillin MIC Alone, S. aureus 19 MRSA
  MIC: 128 µg/mL (≈ 247 µM)
Bacterial isolates; Staphylococcus aureus, read-out: Piperacillin MIC Alone, S. aureus SB2MRSA
  MIC: 128 µg/mL (≈ 247 µM)
Bacterial isolates; Staphylococcus aureus, read-out: Piperacillin MIC Alone, S. aureus SB3MRSA
  MIC: > 128 µg/mL
Bacterial isolates; [16]
  MIC: 64 µg/mL (≈ 124 µM)
Bacterial isolates; [17]
  MIC: 128 µg/mL (≈ 247 µM)
Bacterial isolates; Stenotrophomonas maltophilia, read-out: Piperacillin MIC Alone, S. maltophilia 5
  MIC: > 128 µg/mL
Bacterial isolates; Stenotrophomonas maltophilia, read-out: Piperacillin MIC Alone, S. maltophilia 6
  MIC: > 128 µg/mL
Bacterial isolates; Stenotrophomonas maltophilia, read-out: Piperacillin MIC Alone, S. maltophilia 9
  MIC: > 128 µg/mL
Bacterial isolates; [18]
  MIC: > 128 µg/mL
Bacterial isolates; Stenotrophomonas maltophilia, read-out: Piperacillin MIC Alone, S. maltophilia 13
  MIC: > 128 µg/mL
Bacterial isolates; [19]
  MIC: 128 µg/mL (≈ 247 µM)
Bacterial isolates; [20]
  MIC: > 512 µg/mL
Bacterial isolates; [21]
  MIC: > 256 µg/mL
Bacterial isolates; Stenotrophomonas maltophilia, read-out: Piperacillin MIC Alone, S. maltophilia 38
  MIC: > 512 µg/mL
Bacterial isolates; Stenotrophomonas maltophilia, read-out: Piperacillin MIC Alone, S. maltophilia 40
  MIC: > 512 µg/mL
Bacterial isolates; Stenotrophomonas maltophilia, read-out: Piperacillin MIC Alone, S. maltophilia 42
  MIC: > 512 µg/mL
[1]; S. aureus MRSA, peptide MBI 11F3CN
  Piperacillin MIC + Peptide: 4 µg/mL
[1]; read-out: Piperacillin MIC + Peptide, S. aureus MRSA, peptide MBI 11B7CN
  MIC: 0.5 µg/mL
[1]; read-out: Piperacillin MIC + Peptide, S. aureus MRSA, peptide MBI 11D18CN
  MIC: 2 µg/mL
[1]; read-out: Piperacillin MIC + Peptide, S. aureus MRSA, peptide MBI 11E3CN
  MIC: 2 µg/mL
[1]; read-out: Piperacillin MIC + Peptide, S. aureus MRSA, peptide MBI 11F3CN
  MIC: 2 µg/mL
[1]; read-out: Piperacillin MIC + Peptide, S. aureus MRSA, peptide MBI 11F4CN
  MIC: 4 µg/mL
[1]; read-out: Piperacillin MIC + Peptide, S. aureus MRSA, peptide MBI 11G7CN
  MIC: 0.5 µg/mL
[1]; read-out: Piperacillin MIC + Peptide, S. aureus MRSA, peptide MBI 21A2
  MIC: 0.5 µg/mL
[1]; read-out: Piperacillin MIC + Peptide, S. aureus MRSA, peptide MBI 26
  MIC: 0.5 µg/mL
[1]; read-out: Piperacillin MIC + Peptide, S. aureus MRSA, peptide MBI 29
  MIC: 4 µg/mL
[1]; read-out: Piperacillin MIC Alone, S. aureus MRSA
  MIC: 128 µg/mL (≈ 247 µM)
[2]; [3]
  MIC: > 512 µg/mL
[2]; [4]
  MIC: 32 µg/mL (≈ 61.8 µM)
[2]; [5]
  MIC: > 128 µg/mL
[2]; [6]
  MIC: > 128 µg/mL
[2]; [7]
  MIC: 128 µg/mL (≈ 247 µM)
[2]; [8]
  MIC: > 512 µg/mL
[2]; [9]
  MIC: > 512 µg/mL
[2]; Enterobacter cloacae, read-out: Piperacillin MIC Alone, E. cloacae 19
  MIC: 64 µg/mL (≈ 124 µM)
[2]; [10]
  MIC: > 128 µg/mL
[2]; H. influenzae 1
  Piperacillin MIC Alone: 32 µg/mL
[2]; [11]
  MIC: 64 µg/mL (≈ 124 µM)
[2]; P. aeruginosa 7
  Piperacillin MIC Alone: >128 µg/mL
[2]; P. aeruginosa 23
  Piperacillin MIC Alone: >128 µg/mL and 256 µg/mL
[2]; P. aeruginosa, with MBI 27
  MIC comb. (antibiotic agent): 64 µg/mL (≈ 124 µM)
[2]; P. aeruginosa, with MBI 29
  MIC comb. (antibiotic agent): 64 µg/mL (≈ 124 µM)
[2]; Pseudomonas aeruginosa, read-out: MIC alone (antibiotic agent), P. aeruginosa
  MIC: 128 µg/mL (≈ 247 µM)
[2]; [12]
  MIC: 128 µg/mL (≈ 247 µM)
[2]; Pseudomonas aeruginosa, read-out: Piperacillin MIC Alone, P. aeruginosa 12
  MIC: > 128 µg/mL
[2]; [13]
  MIC: > 128 µg/mL
[2]; [14]
  MIC: > 128 µg/mL
[2]; Pseudomonas aeruginosa, read-out: Piperacillin MIC Alone, P. aeruginosa 23
  MIC: 128 µg/mL (≈ 247 µM)
[2]; Pseudomonas aeruginosa, read-out: Piperacillin MIC Alone, P. aeruginosa 24
  MIC: > 512 µg/mL
[2]; Pseudomonas aeruginosa, read-out: Piperacillin MIC Alone, P. aeruginosa 26
  MIC: 128 µg/mL (≈ 247 µM)
[2]; S. aureus, with MBI 27
  MIC comb. (antibiotic agent): 64 µg/mL (≈ 124 µM)
[2]; S. maltophilia 2
  Piperacillin MIC Alone: 64 µg/mL
[2]; S. maltophilia 4
  Piperacillin MIC Alone: 128 µg/mL
[2]; S. maltophilia 35
  Piperacillin MIC Alone: >512 µg/mL
[2]; S. maltophilia, with MBI 26
  MIC comb. (antibiotic agent): 16 µg/mL (≈ 30.9 µM)
[2]; [15]
  MIC: 64 µg/mL (≈ 124 µM)
[2]; Staphylococcus aureus, read-out: MIC alone (antibiotic agent), S. aureus
  MIC: 128 µg/mL (≈ 247 µM)
[2]; Stenotrophomonas maltophilia, read-out: MIC alone (antibiotic agent), S. maltophilia
  MIC: > 512 µg/mL
[2]; [16]
  MIC: 32 µg/mL (≈ 61.8 µM)
[2]; [17]
  MIC: 64 µg/mL (≈ 124 µM)
[2]; Stenotrophomonas maltophilia, read-out: Piperacillin MIC Alone, S. maltophilia 4
  MIC: 64 µg/mL (≈ 124 µM)
[2]; [18]
  MIC: 32 µg/mL (≈ 61.8 µM)
[2]; [19]
  MIC: 128 µg/mL (≈ 247 µM)
[2]; [20]
  MIC: > 512 µg/mL
[2]; [21]
  MIC: > 256 µg/mL
[2]; Stenotrophomonas maltophilia, read-out: Piperacillin MIC Alone, S. maltophilia 41
  MIC: > 512 µg/mL

## KKWWRRALQALKNGLPALIS [MBI 22A1]
Bacterial isolates; S. aureus SA014 MRSA
  Peptide MIC + Tobramycin: 2 µg/mL
  Peptide MIC Alone: 8 µg/mL
  Tobramycin MIC + Peptide: 4 µg/mL
  FIC: 0.27
Bacterial isolates; S. epidermidis SE072
  Peptide MIC + Tobramycin: 8 µg/mL
  Peptide MIC Alone: 16 µg/mL
  Tobramycin MIC + Peptide: 0.125 µg/mL
  FIC: 0.50
Bacterial isolates; S. epidermidis SE073
  Peptide MIC + Tobramycin: 8 µg/mL
  Peptide MIC Alone: 16 µg/mL
  Tobramycin MIC + Peptide: 0.125 µg/mL
  FIC: 0.50
Bacterial isolates; S. epidermidis SE080
  Peptide MIC + Tobramycin: 0.125 µg/mL
  Peptide MIC Alone: 2 µg/mL
  Tobramycin MIC + Peptide: 16 µg/mL
  FIC: 0.56
Bacterial isolates; [22]
  Peptide MIC + Tobramycin: 8 µg/mL
  Tobramycin MIC + Peptide: 0.5 µg/mL
  FIC: 0.25
Bacterial isolates; S. maltophilia (strain code stands in r800, not shown), Tobramycin section
  Peptide MIC Alone: 32 µg/mL
Bacterial isolates; S. maltophilia SMA030
  Peptide MIC + Tobramycin: 8 µg/mL
  Tobramycin MIC + Peptide: 1 µg/mL
  FIC: 0.26
Bacterial isolates; S. maltophilia SMA030, Tobramycin section
  Peptide MIC Alone: 32 µg/mL
[1]; S. aureus
  Peptide MIC + Tobramycin: 2 µg/mL
[1]; S. aureus, Tobramycin section
  Peptide MIC Alone: 8 µg/mL
[1]; peptide + Tobramycin, S. aureus
  FIC: 0.27
[2]; A. baumannii ABI001
  Peptide MIC + Tobramycin: 2 µg/mL
  Tobramycin MIC + Peptide: 4 µg/mL
  Peptide MIC Alone: 4 µg/mL
  FIC: 0.75
[2]; S. epidermidis SE072
  Peptide MIC + Tobramycin: 8 µg/mL
  Tobramycin MIC + Peptide: 0.125 µg/mL
  Peptide MIC Alone: 16 µg/mL
  FIC: 0.50
[2]; S. epidermidis SE073
  Peptide MIC + Tobramycin: 8 µg/mL
  Tobramycin MIC + Peptide: 0.125 µg/mL
  Peptide MIC Alone: 16 µg/mL
  FIC: 0.50
[2]; S. maltophilia SMA029
  Peptide MIC + Tobramycin: 8 µg/mL and 16 µg/mL
  Peptide MIC Alone: 16 µg/mL and 32 µg/mL
  FIC: 0.51 and 0.50

— US20020035061A1, “COMPOSITIONS AND METHODS FOR TREATING INFECTIONS USING CATIONIC PEPTIDES ALONE OR IN COMBINATION WITH ANTIBIOTICS” (priority 1996, published 2002)
